Positions of bridges follow the written chain, without caps; N, C: chain ends. Non-standard residues stand in square brackets, D forms with d. Residues, ends and D or L forms follow the SMILES beside them.
Experiments:
B16/F1 melanoma = assay: Biodistribution in B16/F1 melanoma-bearing C57 mice; format: in vivo; conditions: for Tumor uptake blocked by NDP-MSH: 6.1 nmol of NDP-MSH; for Tumor uptake decreased (blocked) by RGD co-injection: 3.5 μg (6.1 nmol) of RGD; for Tumor uptake with NDP-MSH co-injection as % of the tumor uptake without: 10 μg (6.1 nmol) NDP-MSH, 2 h after dose administration
Protocol: All the animal studies were conducted in compliance with Institutional Animal Care and Use Committee approval. The pharmacokinetics of ^99mTc-RGD-Lys-(Arg^11)CCMSH was determined in B16/F1 melanoma-bearing C57 female mice (Harlan, Indianapolis, Ind.). C57 mice were subcutaneously inoculated on the right flank with 1×10^6 B16/F1 cells. The weight of tumors reached approximately 0.2 g 10 days post cell inoculation. Each melanoma-bearing mouse was injected with 0.037 MBq of ^99mTc-RGD-Lys-(Arg^11)CCMSH via the tail vein. Groups of 5 mice were sacrificed at 0.5, 2, 4 and 24 h post-injection, and tumors and organs of interest were harvested, weighed and counted. Blood values were taken as 6.5% of the whole-body weight. The MC1 receptor specificity of the tumor uptake was determined at 2 h post-injection by co-injecting ^99mTc-RGD-Lys-(Arg^11)CCMSH with 10 μg (6.1 nmol) of unlabeled NDP-MSH, a linear α-MSH peptide analogue with picomolar affinity for the MC1 receptors present on murine melanoma cells. The co-injection of 3.5 μg (6.1 nmol) of RGD peptide was performed to determine the αvβ3 integrin specificity of the tumor uptake 2 h post-injection. Statistical analysis was performed using the Student's t-test for unpaired data.
All the animal studies were conducted in compliance with Institutional Animal Care and Use Committee approval. The pharmacokinetics of ^99mTc-RGD-Arg-(Arg^11)CCMSH was determined in B16/F1 melanoma-bearing C57 female mice (Harlan, Indianapolis, Ind.). C57 mice were subcutaneously inoculated on the right flank with 1×10^6 B16/F1 cells. The weight of tumors reached approximately 0.2 g 10 days post cell inoculation. Each melanoma-bearing mouse was injected with 0.037 MBq of ^99mTc-RGD-Arg-(Arg^11)CCMSH via the tail vein. Groups of 5 mice were sacrificed at 0.5, 2, 4 and 24 h post-injection, and tumors and organs of interest were harvested, weighed and counted. Blood values were taken as 6.5% of the whole-body weight. The MC1 receptor specificity of the tumor uptake was determined at 2 h post-injection by co-injecting ^99mTc-RGD-Arg-(Arg^11)CCMSH with 10 μg (6.1 nmol) of unlabeled NDP-MSH. The co-injection of 3.5 μg (6.1 nmol) of RGD peptide was performed to determine the αvβ3 integrin specificity of the tumor uptake at 2 h post-injection.

[1] = Urinary metabolites by HPLC; format: in vivo, C57 mouse; conditions: urine, 2 h post-injection, RP-HPLC
Protocol: Urinary metabolites of ^99mTc-RGD-Lys-(Arg^11)CCMSH were determined by injecting 3.7 MBq of […]-RGD-Lys-(Arg^11)CCMSH into a B16/F1 melanoma-bearing C57 mouse through the tail vein. At 2 h after dose administration, the mouse was euthanized and the urine was collected. The radioactive metabolites in the urine were analyzed by injecting aliquots of urine into HPLC. A 20-minute gradient of 16-26% acetonitrile/20 mM HCl was used for the urine analysis.
Urinary metabolites of ^99mTc-RGD-Arg-(Arg^11)CCMSH were determined by injecting 3.7 MBq of ^99mTc-RGD-Arg-(Arg^11)CCMSH into a B16/F1 melanoma-bearing C57 mouse through the tail vein. At 2 h after dose administration, the mouse was euthanized and the urine was collected. The radioactive metabolites in the urine were analyzed by injecting aliquots of urine into HPLC. A 20-minute gradient of 16-26% acetonitrile/20 mM HCl was used for the urine analysis.

CC(C)[C@H](NC(=O)[C@@H]1CCCN1C(=O)[C@H](CCCNC(=N)N)NC(=O)[C@H](CS)NC(=O)[C@H](Cc1c[nH]c2ccccc12)NC(=O)[C@H](CCCNC(=N)N)NC(=O)[C@@H](Cc1ccccc1)NC(=O)[C@H](Cc1c[nH]cn1)NC(=O)[C@H](CCC(=O)O)NC(=O)[C@H](CS)NC(=O)[C@H](CS)NC(=O)[C@H](CCCNC(=N)N)NC(=O)[C@@H]1CC(=O)N[C@@H](CCCNC(=N)N)C(=O)NCC(=O)N[C@@H](CC(=O)O)C(=O)N[C@H](Cc2ccc(O)cc2)C(=O)N1)C(N)=O [^99mTc-RGD-Arg-(Arg^11)CCMSH, metal not drawn] (RGD[dY]DRCCEH[dF]RWCRPV-NH2; lactam N-5)
Tumor uptake blocked by NDP-MSH (B16/F1 melanoma; 2 h post-injection): 90.9% | Tumor uptake decreased (blocked) by RGD co-injection (B16/F1 melanoma; 2 h post-injection): 21.2% | Tumor uptake with NDP-MSH co-injection as % of the tumor uptake without (B16/F1 melanoma): 9.15% | Renal uptake values as % of those of ^99mTc-RGD-Lys-(Arg^11)CCMSH (B16/F1 melanoma; 0.5, 2, 4 and 24 h post-injection): 40.14-64.08% | Renal uptake value as % of that of ^99mTc-RGD-Lys-(Arg^11)CCMSH (B16/F1 melanoma; 0.5 h post-injection): 53.65% | Tumor uptake value, times that of ^99mTc-RGD-Lys-(Arg^11)CCMSH (B16/F1 melanoma; 0.5 h post-injection): 1.27 times | Renal uptake value as % of that of ^99mTc-RGD-Lys-(Arg^11)CCMSH (B16/F1 melanoma; 2 h post-injection): 64.08% | Tumor uptake value, times that of ^99mTc-RGD-Lys-(Arg^11)CCMSH (B16/F1 melanoma; 2 h post-injection): 1.44 times | Renal uptake value as % of that of ^99mTc-RGD-Lys-(Arg^11)CCMSH (B16/F1 melanoma; 4 h post-injection): 52.89% | Tumor uptake value as % of the tumor uptake value 2 h post-injection (B16/F1 melanoma; 4 h post-injection): 75% | Tumor uptake value, times that of ^99mTc-RGD-Lys-(Arg^11)CCMSH (B16/F1 melanoma; 4 h post-injection): 1.28 times | Renal uptake value as % of that of ^99mTc-RGD-Lys-(Arg^11)CCMSH (B16/F1 melanoma; 24 h post-injection): 40.14% | Tumor/kidney uptake ratio, times that of ^99mTc-RGD-Lys-(Arg^11)CCMSH (B16/F1 melanoma; 24 h post-injection): 2.21 times | Urinary radioactivity: remained intact [1]: Approximately 73% | Urinary radioactivity: transformed to more lipophilic metabolite(s) [1]: 27%

CC(C)[C@H](NC(=O)[C@@H]1CCCN1C(=O)[C@H](CCCNC(=N)N)NC(=O)[C@H](CS)NC(=O)[C@H](Cc1c[nH]c2ccccc12)NC(=O)[C@H](CCCNC(=N)N)NC(=O)[C@@H](Cc1ccccc1)NC(=O)[C@H](Cc1c[nH]cn1)NC(=O)[C@H](CCC(=O)O)NC(=O)[C@H](CS)NC(=O)[C@H](CS)NC(=O)[C@H](CCCCN)NC(=O)[C@@H]1CC(=O)N[C@@H](CCCNC(=N)N)C(=O)NCC(=O)N[C@@H](CC(=O)O)C(=O)N[C@H](Cc2ccc(O)cc2)C(=O)N1)C(N)=O [^99mTc-RGD-Lys-(Arg^11)CCMSH, metal not drawn] (RGD[dY]DKCCEH[dF]RWCRPV-NH2; lactam N-5)
Tumor uptake blocked by NDP-MSH (B16/F1 melanoma; 2 h post-injection): 87.8% | Tumor uptake decreased (blocked) by RGD co-injection (B16/F1 melanoma; 2 h post-injection): 29.2% | Tumor uptake with NDP-MSH co-injection as % of the tumor uptake without (B16/F1 melanoma): 12.2% | Kidneys, Percentage Injected Dose/gram (B16/F1 melanoma; 4 h post-injection): 69.29 ± 14.34 % ID/g | Renal uptake value, times that of ^99mTc-(Arg^11)CCMSH (B16/F1 melanoma; 4 h post-injection): 12.5 times | Tumor uptake value as % of the tumor uptake value 2 h post-injection (B16/F1 melanoma; 4 h post-injection): 85% | Tumor uptake value, times that of ^99mTc-(Arg^11)CCMSH (B16/F1 melanoma; 4 h post-injection): 1.1 times | Tumor uptake value as % of the tumor uptake value 2 h post-injection (B16/F1 melanoma; 24 h post-injection): 51% | Tumor uptake value, times that of ^99mTc-(Arg^11)CCMSH (B16/F1 melanoma; 24 h post-injection): 2.3 times | Renal uptake value, times that of ^188Re-dLys-(Arg^11)CCMSH (B16/F1 melanoma; mouse, in vivo): 1.2 times | Urinary radioactivity: remained intact [1]: Approximately 68% | Urinary radioactivity: transformed to more lipophilic metabolite(s) [1]: 32%
